In patent US20180265423A1, “Pesticide Dispersion in Concentrated Aqueous Fertilizer Solution” (priority 2014, published 2018):
Like-named read-outs stand apart in the source and are kept apart here.

What was measured:
[1] = assay type: physicochemical; conditions: for crystal growth in the fertilizer solutions tested: review of table 2
Description: Crystal formation in a suspension concentrate is a complex phenomenon. It is believed that if the solubility of the suspended solid chemical is high in the medium, the suspension concentrate is prone to form crystals of the suspended solid chemical in storage. […] The concentrations of the solid pesticides used in this example were low (at a typical ready-to-apply concentration range). If a solid pesticide forms crystals in such a low concentration, it is not suitable for a ready-to-apply pesticide suspension and mostly likely will not be suitable for a more concentrated suspension in fertilizer. […] By “not suitable” is meant that although it may work to some extent, it is not a good candidate for the pesticide SC.
Samples were prepared by adding the components followed by hand-shaking.

[2] = 30 wt % captan suspension in 10-34-0: flow and storage stability (Example 12); assay type: physicochemical
Method: 10-34-0 fertilizer (56% ammonium polyphosphate by Plant Food Company Inc.) and Phospholan PS-413 surfactant were combined in a container and mixed thoroughly. Captan fungicide was added to the mixture and then the resulting combination was homogenized. The components were added in amounts to provide a composition containing 69.3 wt % of the 10-34-0 fertilizer solution (56% solution), 1.0 wt % surfactant and 29.7 wt % Captan fungicide.

[3] = Use alone, dilution with water or dispersion of the suspensions into fertilizer concentrates; assay type: physicochemical; conditions: 10-34-0, URAN 32, URAN 28 and 28-40% AMS
[4] = Storage stability of 40% clothianidin SC in 10-34-0 with wetting agent Witcolate D-510 (Example 5); assay type: physicochemical; conditions: clothianidin suspension in 10-34-0
Method: The test samples were prepared by adding 60 grams of 10-34-0 fertilizer (from Plant Food) to a bottle. Then various amounts of Witcolate D-510 (2-ethylhexyl sulfate) were added to the 10-34-0 fertilizer and mixed well. Finally, 40 grams of clothianidin (technical grade) was added to the mixture and mixed well by shaking by hand.

[5] = Stability of 50% clothianidin in 50% URAN 32 fertilizer (Example 6); assay type: physicochemical; conditions: 0.5 g in 100 g URAN 32 fertilizer solution
Method: 0.5 g Witcolate D-510 surfactant was added into 100 g URAN 32 fertilizer solution (50 wt % URAN 32 in water). […] Then 100 g clothianidin was added to the resulting solution and mixed well by hand-shaking. This sample was stable and had about 10% top clear with a smooth bottom suspension after 2 weeks at 40° C.
In other experiments, 0.3% of a pH adjusting agent (40 wt % Citric acid), was included in the SC sample (homogenized sample) and no noticeable effect was observed on stability. Viscosity measurements were made with a Brookfield viscometer at various speeds (rpm) at room temperature with a #64 spindle. This sample was very viscous but it was highly shear-thinning.

[6] = Study of additional surfactants in 10-34-0, 27-4-0 and diluted 10-34-0 fertilizers (Example 8); assay type: physicochemical
[7] = Quick screening of crystal growth potential in fertilizer concentrates and water, solid pesticides containing a carboxylic acid group (Example 2); assay type: physicochemical; conditions: for Comment: crystal growth: between 0 C. and 40 C.; for suitability for suspension in fertilizer solutions: review of table 3
Method: Samples were prepared by adding the components followed by hand-shaking. Samples were placed at 0° C. and observation was made after 1 day, unless otherwise specified.

[8] = as above; assay type: physicochemical; conditions: 1 wt % powder pesticide, 98 wt % 10-34-0, 1 wt % Witcolate D-510; between 0 C. and 40 C.
[9] = assay type: physicochemical
Method: 10-34-0 fertilizer (56% ammonium poly phosphate by Plant Food Company Inc.) and Phospholan HE-6614 surfactant were combined in a container and mixed thoroughly. Trifloxystrobin fungicide was added to the mixture and then the resulting combination was homogenized. The components were added in amounts to provide a composition containing 62.38 wt % of the 10-34-0 fertilizer solution (56% solution), 1.0 wt % surfactant and […] Trifloxystrobin fungicide.

[10] = 1 wt % powder pesticide in 99 wt % 10-34-0, no wetting agent
[11] = 1 wt % powder pesticide in 99 wt % 40% AMS, no wetting agent
[12] = 1 wt % powder pesticide in 99 wt % URAN 32, no wetting agent
[13] = 1 wt % powder pesticide in 99 wt % Water, no wetting agent
[14] = same SC, after a week at 50° C.
[15] = 1 wt % powder pesticide, 98 wt % 10-34-0, 1 wt % Witcolate D-510
[16] = 1 wt % powder pesticide, 98 wt % 40% AMS, 1 wt % Witcolate D-510
[17] = 1 wt % powder pesticide, 98 wt % URAN 32, 1 wt % Witcolate D-510
[18] = 1 wt % powder pesticide, 98 wt % Water, 1 wt % Witcolate D-510
[19] = powder pesticide (glyphosate acid 2, 2,4-D acid 1.3, others 1 wt %) in 10-34-0, no wetting agent
[20] = powder pesticide (glyphosate acid 2, 2,4-D acid 1.3, others 1 wt %) in 10-34-0, no wetting agent, 0° C., 1 day unless otherwise specified
[21] = powder pesticide (glyphosate acid 2, 2,4-D acid 1.3, others 1 wt %) in 40% AMS, no wetting agent, 0° C., 1 day unless otherwise specified
[22] = powder pesticide (glyphosate acid 2, 2,4-D acid 1.3, others 1 wt %) in URAN 32, no wetting agent, 0° C., 1 day unless otherwise specified

## O=C1C2CC=CCC2C(=O)N1SC(Cl)(Cl)Cl (centres unmarked) [Captan]
[1]; [10]
  Comment: powder sank or floated: 0-40 °C Powder sank.
  Comment: suitability: Suitable
[1]; [11]
  Comment: powder sank or floated: 0-40 °C Powder sank.
  Comment: suitability: Suitable
[1]; [12]
  Comment: powder sank or floated: 0-40 °C Powder sank.
  Comment: suitability: Suitable
[1]; [13]
  Comment: powder sank or floated: 0-40 °C Powder sank.
  Comment: suitability: Suitable
[1]
  crystal growth in the fertilizer solutions tested: did not have crystal growth
[2]; 29.7 wt % Captan, 69.3 wt % 10-34-0 solution, 1.0 wt % Phospholan PS-413, homogenized
  flow and stability of the resulting SC: easily flowable and stable
[2]; same SC, 2° C.
  flow at 2° C.: still able to flow
[2]; [14]
  phase separation: no visible phase separation
[3]; 29.7 wt % Captan SC in 10-34-0, gentle stirring
  used alone, diluted with water, dispersed to a fertilizer concentrate: without forming crystals or coagulation

## C4-C6 phosphate ester with less than 7EO units (acid form)
[4]
  surfactant in place of Witcolate D-510 to produce similar clothianidin suspensions: suitable

## CCCCC(CC)COS(=O)(=O)[O-].[Na+] (centres unmarked) [Witcolate D510, 2-ethylhexyl sulfate]
[5]
  dissolution of surfactant in URAN 32: dissolved in URAN 32 readily
[6]; 27-4-0 76.6, surfactant 23.4 wt
  Appearance: Clear

## Nc1c(Cl)c(Cl)nc(C(=O)O)c1Cl [Picloram]
[7]; [15]
  Comment: suitability: some floated. Suitable
[7]; [16]
  Comment: powder sank or floated: Powder sank
  Comment: suitability: Suitable
  Comment: crystal growth: No crystal growth between 0 C.
[7]; [17]
  Comment: powder sank or floated: Powder sank
  Comment: suitability: Suitable
  Comment: crystal growth: No crystal growth between 0 C.
[7]; [18]
  Comment: powder sank or floated: Powder sank
  Comment: suitability: Suitable
  Comment: crystal growth: No crystal growth between 0 C.
[7]; [19]
  Comment: suitability: Suitable
[7]; [20]
  Comment: crystal growth or other change: No crystal growth between 0 C.
  Comment: powder sank or floated: Powder sank
[7]; powder pesticide (glyphosate acid 2, 2,4-D acid 1.3, others 1 wt %) in 40% AMS, no wetting agent
  Comment: suitability: Suitable
[7]; [21]
  Comment: crystal growth or other change: No crystal growth between 0 C.
  Comment: powder sank or floated: Powder sank
[7]; [22]
  Comment: dissolution: Powder almost dissolved
[7]
  suitability for suspension in fertilizer solutions: appears to be suitable
[8]
  Comment: crystal growth: No crystal growth between 0 C.

## CON=C(C(=O)OC)c1ccccc1CON=C(C)c1cccc(C(F)(F)F)c1 [Trifloxystrobin]
[1]; [10]
  Comment: powder sank or floated: 0-40 °C Powder sank.
  Comment: suitability: Suitable
[1]; [11]
  Comment: powder sank or floated: 0-40 °C Powder sank.
  Comment: suitability: Suitable
[1]; [12]
  Comment: powder sank or floated: 0-40 °C Powder sank.
  Comment: suitability: Suitable
[1]; [13]
  Comment: powder sank or floated: 0-40 °C Powder sank.
  Comment: suitability: Suitable
[1]
  crystal growth in the fertilizer solutions tested: did not have crystal growth
[9]
  flow and stability of the resulting SC: easily flowable and stable
[9]; same SC, 2° C.
  flow at 2° C.: still able to flow
[9]; [14]
  clear phase at the bottom: less than 2.5%
[9]; same SC, after a week at 50° C., inverting the container
  re-mixing: remixed easily
[3]; 36.63 wt % Trifloxystrobin SC in 10-34-0
  used alone, diluted with water, dispersed to a fertilizer concentrate: without forming crystal and coagulation

## O=C(O)c1nc(Cl)ccc1Cl [Clopyralid]
[7]; [15]
  Comment: suitability: Suitable
[7]; [19]
  Comment: suitability: Suitable
[7]; [20]
  Comment: crystal growth or other change: No crystal growth
  Comment: dissolution: Not dissolved
  Comment: powder sank or floated: Powder floated
[7]; [21]
  Comment: crystal growth or other change: Crystal growth at room temp
  Comment: dissolution: Not dissolved
  Comment: powder sank or floated: Powder sank
[7]; powder pesticide (glyphosate acid 2, 2,4-D acid 1.3, others 1 wt %) in URAN 32, no wetting agent
  Comment: suitability: Not suitable
[7]; [22]
  Comment: dissolution: Dissolved
[7]; powder pesticide (glyphosate acid 2, 2,4-D acid 1.3, others 1 wt %) in Water, no wetting agent
  Comment: suitability: Not suitable
[7]; powder pesticide (glyphosate acid 2, 2,4-D acid 1.3, others 1 wt %) in Water, no wetting agent, 0° C., 1 day unless otherwise specified
  Comment: dissolution: Dissolved
[7]
  suitability for suspension in fertilizer solutions: may not be suitable
[8]
  Comment: crystal growth: No crystal growth between 0 C.

## CCCCC(CC)COC(=O)CC(C(=O)OCC(CC)CCCC)S(=O)(=O)O.[Na] (centres unmarked) [Aerosol AOT-75, sodium bis (2-ethyl hexyl) sulfosuccinate]
[6]; 27-4-0 99, surfactant 1 wt
  Surfactant Suitability: Not suitable
[6]; review of table 10
  suitability for the fertilizers tested: not suitable
